Measurements published in patent US5496847A, “Aminomethyl-benzodioxane and benzopyran serotonergic agents” (Bristol-Myers Squibb Co., priority 1995, dated 1996).
Where a name gives a salt, the structure may show the parent alone.

Target: T1, 5-HT1A receptor
T1 construct: from tissue
Assay: In vitro binding to the 5-HT1A receptor (method of Peroutka, Brain Research 344, 167 (1985), minor modifications)
Conditions: in vitro binding to 5-HT1A receptor; class symbols
Experimental: In vitro IC50 test values for binding to the 5-HT1A receptor were determined for representative compounds of Formula I by the method of S. J. Peroutka, Brain Research 344, 167 (1985); with only minor modifications. Test IC50 values lower than 100 nM are considered to reflect activity at the 5-HT1A receptor.

T1 sequence (F6Q2H9 1-422): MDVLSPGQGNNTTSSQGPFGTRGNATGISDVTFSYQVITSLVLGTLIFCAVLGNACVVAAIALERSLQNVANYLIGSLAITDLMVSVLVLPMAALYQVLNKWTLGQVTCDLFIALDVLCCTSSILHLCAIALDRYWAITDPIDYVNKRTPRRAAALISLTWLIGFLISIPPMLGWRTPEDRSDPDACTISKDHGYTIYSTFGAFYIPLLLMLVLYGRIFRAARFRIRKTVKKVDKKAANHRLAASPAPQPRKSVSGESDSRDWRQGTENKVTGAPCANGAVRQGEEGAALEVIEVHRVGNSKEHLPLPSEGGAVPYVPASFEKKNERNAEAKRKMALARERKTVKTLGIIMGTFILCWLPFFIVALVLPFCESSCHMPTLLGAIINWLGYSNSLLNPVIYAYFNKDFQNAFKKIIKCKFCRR

Row | IC50 [nM] | Structure (SMILES)
1 | 5 to 25 | CCN(CC1COc2ccccc2O1)C1CCC(O)(c2ccc3c(c2)OCO3)CC1 (mixture of isomers) [Example 7, (±)-Cis-N-Ethyl-N,[4-(1,3-benzodioxol-5-yl)-4-hydroxycyclohexyl]-1,4-benzodioxane-2-methanamine fumarate]
2 | 5 to 25 | COC1(c2ccc3c(c2)OCO3)CCC(N(C)CC2COc3ccccc3O2)CC1 (mixture of isomers) [Example 8, (±) -Cis-N-Methyl-N-[4-(1,3-benzodioxol-5-yl)-4-methoxycyclohexyl]-1,4,-benzodioxane-2-methanamine fumarate]
3 | 1 to 5 | CCOC1(c2ccc3c(c2)OCO3)CCC(NCC2COc3ccccc3O2)CC1 (racemic) [Example 5, (±)-Cis-N-[4-(1,3-benzodioxol-5-yl)-4-ethoxycyclohexyl]-1,4-benzodioxane-2-methanamine fumarate]
4 | 1 to 5 | COC1(c2ccc3c(c2)OCO3)CCC(NCC2COc3ccccc3O2)CC1 (racemic) [Example 6, (±)-Cis-N-[4-(1,3-Benzodioxol-5-yl)-4-methoxycyclohexyl]-1,4-benzodioxane-2-methanamine hemifumarate]
5 | < 1 | OC1(c2ccc3c(c2)OCO3)CCC(NCC2COc3ccccc3O2)CC1 (stereo not drawn) [Example 1, Cis-4-[(2S-1,4-Benzodioxan-2-yl)methylamino]-1-(1,3-benzodioxol-5-yl)cyclohexanol]
6 | 5 to 25 | C1=C(c2ccc3c(c2)OCO3)CCC(NC[C@H]2COc3ccccc3O2)C1 (stereo partly drawn) [Example 12, N-[4-(1,3-Benzodioxol-5-yl)-3-cyclohexen-1-yl]-2S-1,4-benzodioxane-2-methanamine]

The remaining lines, values behind:

Row | Structure (SMILES) | IC50 [nM]
7 | COC1(c2ccc3c(c2)OCCO3)CCC(NCC2COc3ccccc3O2)CC1 (racemic) [Example 4, (±)-Cis-N-[4-(1,4-benzodioxan-6-yl)-4-methoxycyclohexyl]-1,4-benzodioxane-2-methanamine hemifumarate] | 1 to 5
8 | COC1(c2ccc3c(c2)OCO3)CCC(NCC2COc3ccccc3O2)CC1 (racemic) [Example 10, (±)-Trans-N-[4-(1,3-benzodioxol-5-yl)-4-methoxycyclohexyl]-1,4-benzodioxane-2-methanamine hemifumarate] | 5 to 25
9 | OC1(c2ccc3c(c2)OCO3)CCC(NCC2CCc3ccccc3O2)CC1 (racemic) [Example 11, (±)-Cis-4-[[(3,4-dihydro-2H-1-benzopyran-2-yl)methyl]amino]-1-(1,3-benzodioxol-5-yl)cyclohexanol] | < 1
10 | OC1(c2ccc(F)c(F)c2)CCC(NCC2COc3ccccc3O2)CC1 (racemic) [Example 13, (±)-Cis-4-[(1,4-Benzodioxan-2-yl)methylamino]-1-(3,4-difluorophenyl)cyclohexanol] | < 1
11 | COC1(c2ccc3c(c2)OCO3)CCC(NCC2COc3ccccc3O2)CC1 (single isomer, unassigned; (-)) [Example 9] | < 1
12 | COC1(c2ccc3c(c2)OCO3)CCC(NCC2COc3ccccc3O2)CC1 (stereo not drawn) [Example 2, Cis-N-[4-(1,3-Benzodioxol-5-yl)-4-methoxycyclohexyl]-2S-1,4-benzodioxane-2-methanamine hemifumarate] | < 1
